Reference: patent US9150539B2, “Crystalline form of a reverse transcriptase inhibitor” (Merck Sharp & Dohme Corp., priority 2012, dated 2015)

Assay: Relative thermodynamic stability of crystalline anhydrous Forms I and II (competitive slurry experiments)
Type: physicochemical
Procedure: Competitive slurry experiments were conducted to determine the relative stability of anhydrous Form I and II.

Row | Structure (SMILES) | kinetic preference of form (at room temperature) | conversion rate from AHI to AHII (in solution, under general processing conditions) | thermodynamic stability (at room temperature)
1 | Cn1c(Cn2ccc(C(F)(F)F)c(Oc3cc(Cl)cc(C#N)c3)c2=O)n[nH]c1=O [anhydrous Form I, 3-chloro-5-({1-[(4-methyl-5-oxo-4,5-dihydro-1H-1,2,4-triazol-3-yl)methyl]-2-oxo-4-(trifluoromethyl)-1,2-dihydropyridin-3-yl}oxy)benzonitrile] | kinetically favored | very slow | –
2 | Cn1c(Cn2ccc(C(F)(F)F)c(Oc3cc(Cl)cc(C#N)c3)c2=O)n[nH]c1=O [anhydrous Form II, 3-chloro-5-({1-[(4-methyl-5-oxo-4,5-dihydro-1H-1,2,4-triazol-3-yl)methyl]-2-oxo-4-(trifluoromethyl)-1,2-dihydropyridin-3-yl}oxy)benzonitrile] | – | – | more thermodynamically stable
